Reference: patent US20230399358A1, “IMMUNOGLOBULIN PURIFICATION PEPTIDES AND THEIR USE” (North Carolina State University, priority 2019, published 2023)
pKd: −log10 of the molar value.

How the values were obtained:
[1] = tested on: human polyclonal IgG in CHO-S cell culture fluid; test: Static purification of IgG from CHO cell culture supernatant on peptide-Toyopearl resins, SDS-PAGE densitometry; settings: Gel B, lane E (pH 4)
[2] = molecular target: human polyclonal IgG; test: Isothermal titration calorimetry (ITC) of IgG:ligand binding in solution; settings: 25° C, PBS pH 7.4, peptide in solution, independent binding model
Procedure: Measurements of IgG-binding affinity in solution by isothermal titration calorimetry (ITC): Experimental determination of the binding free energy of the IgG:WQRHGI (SEQ ID NO:1) complex was performed by ITC using a Nano ITC Low Volume calorimeter (TA Instruments, New Castle, DE). […] All solutions were filtered through a 0.22 p.m syringe filter prior to use. Ten injections were performed for each measurement. Background energy from peptide dilution was determined by performing 10 injections of 5 μL of a 2 mg/mL solution of WQRHGI (SEQ ID NO:1) in PBS pH 7.4. The titration data were analyzed using NanoAnalyze software (TA Instruments) and plotted using an independent fitting, which fits the resultant Wiseman plot with parameters corresponding to a non-competitive single-site binding phenomenon in order to calculate the binding affinity (K(D(ITC)), and the stoichiometry (N) of the interaction. A constant blank was also utilized in the fitting to account for the heat of dilution of the IgG substrate.
Characterization of binding affinity for IgG-binding peptide variants WQRHGI (SEQ ID NO:1) and MWRGWQ (SEQ ID NO:2) in non-competitive conditions: Candidate peptide ligands WQRHGI (SEQ ID NO:1) and MWRGWQ (SEQ ID NO:2) were selected for experimental evaluation of IgG binding in non-competitive conditions (pure IgG in solution). […]

[3] = tested on: CHO HCPs; test: CHO HCP-specific ELISA, log removal value of HCPs; parameters: species or system Chinese hamster
Procedure: Purification of IgG from CHO Cell culture fluids using MWRGWQC (SEQ ID NO:31)- and WQRHGIC (SEQ ID NO:30)—Workbeads: A volume of 0.1 mL of resin was packed in a PEEK microbore column, installed on a Waters 2695 unit, and equilibrated with PBS, pH 7.4. All chromatographic buffers were filtered through a compatible 0.2 μm filter prior to use. A volume of 100 μL of solution of human polyclonal IgG at 1 mg/mL in a CHO cell culture fluid at 0.205 mg/mL CHO HCPs was injected in the column at 0.02 mL/min (RT: 5 minutes). Following injection, the resin was washed with PBS at 0.2 mL/min and, subsequently, with 100 mM NaCl in PBS at 0.2 mL/min. Elution was then conducted with […] pH 4. An acidic cleaning step was conducted in 0.1 M glycine pH 2.5 to remove any proteins still bound. The absorbance of the effluent was monitored by UV/Vis spectrophotometry at 280 nm. Fractions were collected and adjusted to neutral pH. Total protein concentration was measured by BCA assay. All collected fractions were also analyzed via SDS PAGE under reducing conditions. The gel was stained by silver staining, and the overall IgG purity in the eluted fractions was determined by densitometric analysis using ImageJ software. Finally, the feed and eluted fractions were analyzed using a CHO-specific ELISA kit to determine the log removal value (LRV) of HCPs. […]

## WQRHGI
[1]
  % Purity (IgG over total eluted proteins): 100%
[2]
  pKd: 4.23
[3]
  HCP clearance: greater than 99%
[3]; IgG 1 mg/mL in CHO fluid with 0.205 mg/mL HCPs, elution pH 4
  HCP LRV: 2.7
